From publication PMC11973282, “RAS70 peptide targets multiforme glioblastoma by binding to the plasma membrane heat shock protein HSP70” (Frontiers in Oncology, 2025)

Assays:
[1] = tested on: high-grade glioma biopsy material; assay: Ex vivo topical application on patient brain tumor specimens, confocal/fluorescent microscopy; design: species or system human
Description: To study RAS70 peptide accumulation in the brain tumors the latter were obtained from neuro-oncological patients. Intraoperative biopsy material obtained from adult (n=6) and pediatric (n=2) patients with radiological diagnosis of high-grade gliomas without previous radiation therapy and chemotherapy. The patients underwent microsurgical interventions between February 2024 and July 2024 ( Table 1 ). The study protocol was approved by the Ethics Committee of the Almazov Medical Research Centre (approval No. 2712-20, December 21, 2020).
To evaluate local accumulation of the fluorescently-labeled peptides the latter were sprayed over the freshly dissected brain tumor specimens as follows (1): control group – PBS (50 μL) (2); NGL-sCy7.5 peptide (50 μl, at concentration of 100 μg) (3); NGL-RGD-sCy7.5 peptide (50 μl, at concentration of 100 μg) (4); TKD-sCy7.5 peptide (50 μl, at concentration of 100 μg) (5); […] peptide (50 μl, at concentration of 100 μg). […]
Small pieces of brain tissue (50-100 mm³) were taken from patients or animals during surgery. […] Hoechst 33342 fluorescence was excited with a 405 nm laser and recorded in the range 410 to 550 nm; Hsp70-FITC and Mito Green fluorescence were excited with a 488 nm laser and recorded in the range 495 to 550 nm; and Cy5 fluorescence was excited with a 633 nm laser and recorded in the range 635 to 750 nm. […]
To study the target properties of the peptide RAS70 ex vivo, biopsy material was obtained from adult (n=6) and pediatric (n=2) neurooncological patients ( Table 1 ). […] Subsequently, tumor was co-incubated with peptide at a concentration of 1 mg/mL for 5–10 minutes, after which the tissue sample was washed with a PBS solution and analyzed by live-cell inverted confocal microscopy ( Figures 11A–C ).
(§1) To detect peptide localization, the biopsy material was additionally stained with a mitochondrial marker MitoGreen and anti-Hsp70 antibodies (SPA-810). […] Additionally, we assessed the depth of the RAS70-sCy3/sCy5 penetration into the tumor tissues […]. […]

normal brain tissues = assay: Ex vivo staining of normal brain tissue from patients with epilepsy; design: species or system human; details: tissues obtained intraoperatively from patients with epilepsy (n=2)
Protocol: For evaluation of targeting properties of RAS70 peptide in the non-tumorous brain tissues patient-derived samples obtained intraoperatively from patients with drug-resistant epilepsy underwent temporal resection (n=2) were employed.
Small pieces of brain tissue (50-100 mm³) were taken from patients or animals during surgery. The resulting material was washed three times in a PBS solution at room temperature and then stained, gently shaking, for 1 hour with one of the following combinations of dyes: a mixture of Hoechst 33342 (0.1 μg/mL) [Invitrogen, USA], monoclonal antibodies against Hsp70 conjugated with FITC, and RAS70 conjugated with Cy5; a mixture of Hoechst 33342 (0.1 μg/mL), LumiTracker® Mito Green FM [Lumiprobe, Russia], and TKD/NGL-RGD/RAS70 conjugated with sCy5. […] Hoechst 33342 fluorescence was excited with a 405 nm laser and recorded in the range 410 to 550 nm; Hsp70-FITC and Mito Green fluorescence were excited with a 488 nm laser and recorded in the range 495 to 550 nm; and Cy5 fluorescence was excited with a 633 nm laser and recorded in the range 635 to 750 nm. […]
as §1

[2] = tested on: GL261 cells (lower chamber; HUVEC and astrocytes barrier); assay: Transwell BBB model, peptide passage and accumulation in tumor cells; details: transwell BBB model: HUVEC (5×10^5) and astrocytes (5×10^5) in upper chamber, GL261 (1×10^4) in lower chamber; FITC-labeled peptide; 36 hours; confocal microscopy count; M ± SE, 3 independent experiments
Protocol: Then, a peptide labeled with a fluorescent label was introduced into the upper chamber and co-incubation was carried out for 12, 24 and 36 hours. At the end of the incubation, the tumor cells were washed with cold phosphate-buffered saline (PBS) and fixed with a 4% solution of paraformaldehyde in PBS. Nuclei were stained with 4’,6-diamidino-2-phenylindole (DAPI). Fluorescent images were obtained using a Leica TCS SP8 confocal microscope (Leica, Germany). To avoid possible cross-interference of different fluorochromes, images for DAPI and FITC were obtained using a sequential sample scanning method. Fluorescently labeled cells were counted in the lower chamber. To estimate the mHsp70-mediated uptake of chaperone-targeted peptides tumor cells prior to incubation were pre-treated with anti-Hsp70 monoclonal antibodies SPA-810 (1:250, Stressgen) and SPA-815 (1:250 Stressgen). To exclude integrin (αvβ3, αvβ5)-mediated penetration of RAS70 tumor cells prior to incubation with peptides were pre-treated with anti- αvβ3 (1:200 clone LM609, ZMS1030, Sigma-Aldrich, USA), -αvβ5 (1:200 clone P1F6, MAB1961Z, Sigma-Aldrich, USA) monoclonal antibodies.
Then, a peptide labeled with a fluorescent dye (FITC) was introduced into the upper chamber and co-incubation was carried out for 12, 24 and 36 hours. At the end of the incubation, the tumor cells were washed with cold phosphate-buffered saline (PBS) and fixed with a 4% solution of paraformaldehyde in PBS. Nuclei were stained with 4’,6-diamidino-2-phenylindole (DAPI).
Data from 3 independent experiments are presented as M ± SE. […] Data from 3 independent experiments are presented as M ± SE. ** p < 0.01 for testing mean expression levels.

| Structure (SMILES) | accumulation in patient brain tumor samples ([1]; 1 mg/mL, 5–10 minutes, live-cell inverted confocal microscopy, adult (n=6) and pediatric (n=2) patients) | depth of the peptide penetration into the tumor tissues ([1]; RAS70-sCy3/sCy5 topically applied on patient tumor samples, histological sections, fluorescent microscopy) [mm] | retention in necrotic tumor areas ([1]; patient tumor samples, confocal microscopy) | localization in normal brain tissue (normal brain tissues) | fluorescently labeled tumor cells in the lower chamber [2] [cells] |
| --- | --- | --- | --- | --- | --- |
| CC(C)C[C@H](NC(=O)[C@H](CC(C)C)NC(=O)[C@H](CC(N)=O)NC(=O)[C@H](CC(N)=O)NC(=O)[C@H](CC(=O)O)NC(=O)[C@H](CCCCN)NC(=O)[C@@H](N)[C@@H](C)O)C(=O)NCC(=O)N[C@@H](CCCNC(=N)N)C(=O)N[C@@H](Cc1ccccc1)C(=O)N[C@@H](CCC(=O)O)C(=O)N[C@@H](CC(C)C)C(=O)N[C@@H](CO)C(=O)NCC(=O)NCCC(=O)N[C@@H](CCCNC(=N)N)C(=O)NCC(=O)N[C@@H](CC(=O)O)C(=O)O [RAS70] | noted in all analyzed samples | 3.0 ± 0.87 | non-specific retention of the peptide | no tissue-specific localization of RAS70 was detected |  |
| CC(C)C[C@H](NC(=O)[C@H](CC(C)C)NC(=O)[C@H](CC(N)=O)NC(=O)[C@H](CC(N)=O)NC(=O)[C@H](CC(=O)O)NC(=O)[C@H](CCCCN)NC(=O)[C@@H](N)[C@@H](C)O)C(=O)NCC(=O)N[C@@H](CCCNC(=N)N)C(=O)N[C@@H](Cc1ccccc1)C(=O)N[C@@H](CCC(=O)O)C(=O)N[C@@H](CC(C)C)C(=O)N[C@@H](CO)C(=O)NCC(=O)O [TKD] |  |  |  |  | 289 ± 51 |
